Test results from patent US20100184853A1, “TERPENES WITH ANTIFUNGAL ACTIVITY AGAINST MALASSEZIA YEASTS” (INSTITUTO BIOMAR, S.A., priority 2007, published 2010).

System: Malassezia furfur CBS 1878
Test: Antifungal disk diffusion susceptibility test
Format: cell-based
Conditions: 15 nmol per 6 mm paper disc; ML2 plates; two days at 30° C.
Experimental: Antifungal activity was tested against Malassezia furfur CBS 1878.
Malassezia furfur was grown on ML2 agar plates containing potato dextrose agar 4.2%, ox bile 0.8%, glycerol 1% (v:v), olive oil 1% (v:v), tween 60 0.5% (v:v) for two days, at 30° C., as stock culture.
An area of 2 cm^2 of a growing plate of Malassezia furfur stock culture was scraped using a sterile loop. Biomass was homogenated in 1 ml glycerol 20%. A volume of 100 μl of the glycerol homogenate was spread on testing ML2 plates.
Each test compound was dissolved in distilled water and added on blank paper discs (6 mm, diameter) on the inoculated plates. Plates were incubated for two days at 30° C. Inhibition circles around the discs (halo) were used as activity measure.
Ketoconazol was used as inhibition control.
The test was carried out at 15 nmol for each compound. Antifungal activities are shown at table 1.

Row | Compound | Halo (inhibition circle around the disc) [mm]
1 | CO[C@@H]1[C@H](OC(=O)/C=C/C=C/C=C/C=C/C(=O)O)CC[C@]2(CO2)[C@H]1[C@@]1(C)O[C@@H]1CC=C(C)C [Fumagillin] | 27
2 | CO[C@@H]1C(=O)CC[C@]2(CO2)[C@@]1(O)[C@@]1(C)O[C@@H]1CC=C(C)C [Ovalicin] | 46
3 | CC(=O)N1CCN(c2ccc(OCC3COC(Cn4ccnc4)(c4ccc(Cl)cc4Cl)O3)cc2)CC1 (stereo not shown) [Ketoconazol] | 23
4 | COC1C(=O)CCC(O)(CCl)C1(O)C1(C)OC1CC=C(C)C (stereo not shown) [Chlovalicin] | 35
